Usually IC50 stands for the concentration at which inhibition is half-maximal.

Drawing on ChEMBL document CHEMBL3864170, “Pyrazole Inhibitors of GluN2B NMDA Receptor Subunit” (ACS Med Chem Lett, 2016), this text covers IC50 and MED for four compounds.

In data set [1] the target is Glutamate receptor ionotropic, NMDA 2B (Rattus norvegicus, UniProt Q00960). As to the kind of experiment: Antagonist activity at Wistar rat brain NR2B assessed as inhibition of glutamate/glycine-induced Ca2+ flux measured after 90 secs. (A change in cytosolic calcium serves as a functional read-out for many receptors and channels.)
Sequence of Glutamate receptor ionotropic, NMDA 2B (Q00960 whole entry): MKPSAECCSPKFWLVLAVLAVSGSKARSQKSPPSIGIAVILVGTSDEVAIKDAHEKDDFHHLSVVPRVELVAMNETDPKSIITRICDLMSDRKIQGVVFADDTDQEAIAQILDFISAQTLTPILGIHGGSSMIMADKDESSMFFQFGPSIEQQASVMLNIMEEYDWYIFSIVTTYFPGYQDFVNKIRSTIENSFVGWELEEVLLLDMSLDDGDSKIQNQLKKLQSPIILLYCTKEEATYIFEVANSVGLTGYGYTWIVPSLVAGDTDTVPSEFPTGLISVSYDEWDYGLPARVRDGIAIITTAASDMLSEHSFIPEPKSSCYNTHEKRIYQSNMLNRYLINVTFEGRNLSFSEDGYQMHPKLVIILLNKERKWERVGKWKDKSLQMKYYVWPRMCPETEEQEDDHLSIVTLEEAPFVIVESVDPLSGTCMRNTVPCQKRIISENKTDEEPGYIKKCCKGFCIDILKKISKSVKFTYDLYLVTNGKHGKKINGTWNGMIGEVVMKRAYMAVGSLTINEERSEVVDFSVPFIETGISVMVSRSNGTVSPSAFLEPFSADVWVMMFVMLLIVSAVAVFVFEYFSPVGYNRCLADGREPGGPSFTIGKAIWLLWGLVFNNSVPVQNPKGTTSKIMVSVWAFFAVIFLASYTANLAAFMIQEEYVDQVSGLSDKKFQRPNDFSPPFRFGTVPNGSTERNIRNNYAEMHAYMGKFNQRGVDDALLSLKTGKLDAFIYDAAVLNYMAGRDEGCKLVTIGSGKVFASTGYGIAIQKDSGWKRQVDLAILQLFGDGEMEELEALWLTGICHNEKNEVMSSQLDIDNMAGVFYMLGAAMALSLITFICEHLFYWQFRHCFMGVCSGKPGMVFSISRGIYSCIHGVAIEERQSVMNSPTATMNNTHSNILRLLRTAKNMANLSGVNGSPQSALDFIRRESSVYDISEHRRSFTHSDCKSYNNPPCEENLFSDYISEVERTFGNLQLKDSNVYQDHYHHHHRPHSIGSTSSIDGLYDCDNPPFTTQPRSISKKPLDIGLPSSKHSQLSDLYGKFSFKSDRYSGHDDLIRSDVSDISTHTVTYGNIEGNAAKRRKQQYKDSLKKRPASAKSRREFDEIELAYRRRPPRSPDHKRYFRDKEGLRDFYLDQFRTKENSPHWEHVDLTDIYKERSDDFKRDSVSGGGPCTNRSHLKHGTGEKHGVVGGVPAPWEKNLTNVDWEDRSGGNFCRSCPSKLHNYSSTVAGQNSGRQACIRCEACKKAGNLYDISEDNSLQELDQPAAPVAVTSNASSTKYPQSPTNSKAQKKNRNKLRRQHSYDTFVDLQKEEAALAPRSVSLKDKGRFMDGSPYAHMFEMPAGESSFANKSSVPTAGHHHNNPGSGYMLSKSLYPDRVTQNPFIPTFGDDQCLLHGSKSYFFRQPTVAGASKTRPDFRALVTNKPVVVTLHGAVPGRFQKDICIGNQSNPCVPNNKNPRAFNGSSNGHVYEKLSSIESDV
For another data set, the target named is hERG (KCNH2) (Homo sapiens, UniProt Q12809). Description: Displacement of [3H]-dofetilide from human ERG expressed in HEK293 cell membranes after 90 mins by scintillation counting. The following applies: membranes of HEK293 cells that express human ERG, probe [3H]-dofetilide. On the technique in general: Loss of bound radioactivity is the signal in a displacement assay; it reports binding, not function.
Sequence of hERG (KCNH2) (Q12809 whole entry): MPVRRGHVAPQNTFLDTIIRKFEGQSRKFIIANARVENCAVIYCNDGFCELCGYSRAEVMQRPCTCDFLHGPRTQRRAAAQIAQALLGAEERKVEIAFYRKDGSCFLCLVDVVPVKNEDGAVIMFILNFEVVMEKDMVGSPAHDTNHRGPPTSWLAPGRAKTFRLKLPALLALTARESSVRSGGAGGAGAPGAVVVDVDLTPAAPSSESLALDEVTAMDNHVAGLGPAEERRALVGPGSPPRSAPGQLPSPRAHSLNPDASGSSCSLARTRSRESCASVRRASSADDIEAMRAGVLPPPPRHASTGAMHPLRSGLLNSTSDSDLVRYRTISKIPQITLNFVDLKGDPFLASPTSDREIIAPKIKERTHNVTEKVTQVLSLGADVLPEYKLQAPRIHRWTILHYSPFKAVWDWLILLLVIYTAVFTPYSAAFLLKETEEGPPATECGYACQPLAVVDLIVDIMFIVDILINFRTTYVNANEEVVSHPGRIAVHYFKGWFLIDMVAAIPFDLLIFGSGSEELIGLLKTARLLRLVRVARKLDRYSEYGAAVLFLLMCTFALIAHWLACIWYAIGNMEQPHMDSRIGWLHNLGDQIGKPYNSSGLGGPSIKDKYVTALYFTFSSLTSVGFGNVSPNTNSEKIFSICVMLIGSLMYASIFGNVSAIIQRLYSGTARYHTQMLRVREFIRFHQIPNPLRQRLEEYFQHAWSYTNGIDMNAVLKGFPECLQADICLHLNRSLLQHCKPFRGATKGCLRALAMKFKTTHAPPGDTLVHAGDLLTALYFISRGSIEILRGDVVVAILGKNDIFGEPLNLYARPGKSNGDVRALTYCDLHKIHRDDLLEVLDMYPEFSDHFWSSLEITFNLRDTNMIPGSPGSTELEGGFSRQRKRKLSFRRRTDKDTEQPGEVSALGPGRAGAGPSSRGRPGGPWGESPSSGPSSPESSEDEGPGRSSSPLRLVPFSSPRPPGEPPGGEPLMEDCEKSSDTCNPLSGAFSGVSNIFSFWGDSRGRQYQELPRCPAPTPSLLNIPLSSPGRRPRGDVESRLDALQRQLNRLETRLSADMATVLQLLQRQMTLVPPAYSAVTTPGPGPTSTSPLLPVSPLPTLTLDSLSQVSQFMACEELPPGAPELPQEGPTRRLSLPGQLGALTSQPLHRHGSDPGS

A short description of data set [2]: Antidepressive activity in po dosed NMRI mouse assessed as reduction in duration of immobility administered 30 mins prior to the test measured on last 4 mins of the 10 mins test by force swim test. In kind it is functional, organism-based.

Take `FC(F)Oc1cc(-c2cnn(Cc3cn[nH]c3)c2)ccc1Cl`: the IC50 in data set [1] came to 8.23 nM. The compound further displayed an IC50 at 90 min on hERG (KCNH2) of 52600 nM.

Regarding `Fc1ccc(-c2cnn(Cc3cc[nH]n3)c2)cc1OC(F)F`, the MED in data set [2] was 10 mg/kg.

With `Cn1ccc(Cn2cc(-c3ccc(Cl)c(C(F)(F)F)c3)cn2)n1`, the 50% inhibitory concentration (IC50) in data set [1] turned out to be 1010 nM. Further, on hERG (KCNH2), the IC50 at 90 min is 3470 nM.

`Cn1ccc(Cn2cc(-c3ccc(Cl)c(OC(F)F)c3)cn2)n1`: the MED in data set [2] came to 30 mg/kg.
